{"source": "patent US12187773B2", "about": "“Modified GIP peptide analogues” (Antag Therapeutics ApS, priority 2018, dated 2025)", "assay_type_in_all_cases": "cell-based", "key": {"human GIP receptor [1]": {"target": "T1, human GIP receptor (Homo sapiens, UniProt P48546)", "T1 sequence (P48546 22-466)": "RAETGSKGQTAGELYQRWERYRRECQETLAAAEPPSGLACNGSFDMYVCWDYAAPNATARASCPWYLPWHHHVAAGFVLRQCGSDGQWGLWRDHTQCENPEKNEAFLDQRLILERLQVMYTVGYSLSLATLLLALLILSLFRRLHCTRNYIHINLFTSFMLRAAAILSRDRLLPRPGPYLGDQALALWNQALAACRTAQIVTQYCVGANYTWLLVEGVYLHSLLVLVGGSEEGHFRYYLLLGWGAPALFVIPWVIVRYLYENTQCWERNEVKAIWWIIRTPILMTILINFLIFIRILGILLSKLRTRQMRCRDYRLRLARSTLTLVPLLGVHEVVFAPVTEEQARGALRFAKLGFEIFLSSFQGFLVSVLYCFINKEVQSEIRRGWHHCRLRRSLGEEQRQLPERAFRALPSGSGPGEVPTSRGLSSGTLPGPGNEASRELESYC", "assay": "cAMP agonism (CisBio cAMP Dynamic 2 HTRF assay)", "conditions": "for Emax: HEK293, read-out: cAMP agonism, % Efficacy, Table 1C, HEK-293 cells", "procedure": "To test for agonistic properties at the GIP receptor, compounds were diluted and added to cells as described above and incubated for 30 min at 37° C. The resulting increase in intracellular cAMP was determined using the CisBio cAMP Dynamic 2 HTRF Assay Kit as described above."}, "human GIP receptor [2]": {"target": "T1, human GIP receptor", "assay": "cAMP accumulation, antagonism (DiscoveRx HitHunter cAMP XS assay)", "set-up": "host or cells: COS-7 (transient, calcium phosphate; pCMV-Script vector)", "conditions": "Table 1B, DiscoveRx; for cAMP antagonism, % inhib: COS-7 cells, % inhibition of Emax; for IC50: cAMP antagonism, nM (IC50), transiently transfected COS-7 cells", "in_short": "(§1)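 cAMP accumulation measured by HitHunter cAMP XS in COS-7 cells transiently expressing human GIP receptor, after 30 min in HBS with 1 mM IBMX at 37 °C. Antagonists preincubated 10 min before GIP giving 50-80% of maximum, then 20 min more; agonist mode used 30 min ligand exposure.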"}, "human GIP receptor [3]": {"target": "T1, human GIP receptor", "assay": "cAMP antagonism (CisBio cAMP Dynamic 2 HTRF assay)", "set-up": "pCMV-Script vector", "conditions": "Table 1C, CisBio, HEK-293 cells; for IC50: cAMP antagonism, nM (IC50), agonist GIP1-42 at EC50", "in_short": "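Four-parameter fits of cAMP dose-response gave pIC50. cAMP fall was quantified by HTRF competition, ratio 665/620 nm after 60 min at room temperature, against a cAMP standard curve.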"}, "human GIP receptor [4]": {"target": "T1, human GIP receptor", "assay": "cAMP accumulation, agonism (DiscoveRx HitHunter cAMP XS assay)", "set-up": "host or cells: COS-7 (transient, calcium phosphate; pCMV-Script vector)", "conditions": "for cAMP agonism, Emax: Table 1B, DiscoveRx, COS-7 cells; for Emax: COS-7, read-out: cAMP agonism, Emax", "in_short": "as §1"}}, "note": "Where a SMILES comes first, the peptide text is derived from it. [ ]: non-standard residue; d: D form. The star is where a group is joined. C18 diacid = O=C(O)CCCCCCCCCCCCCCCCC(=O)*; C16 diacid = O=C(O)CCCCCCCCCCCCCCC(=O)*; pGlu = O=C1CC[C@@H](C(=O)O)N1", "data": [{"molecule": "CC[C@H](C)[C@H](NC(=O)[C@H](CO)NC(=O)[C@H](Cc1ccc(O)cc1)NC(=O)[C@H](CC(=O)O)NC(=O)[C@H](CO)NC(=O)[C@@H](NC(=O)[C@H](Cc1ccccc1)NC(=O)[C@@H](NC(=O)CNC(=O)[C@@H]1CCC(=O)N1)[C@@H](C)O)[C@@H](C)CC)C(=O)N[C@@H](C)C(=O)N[C@@H](CCSC)C(=O)N[C@@H](CC(=O)O)C(=O)N[C@@H](CCCNC(=N)N)C(=O)N[C@H](C(=O)N[C@@H](CCCCNC(=O)CCCCCCCCCCCCCCCCC(=O)O)C(=O)N[C@@H](CCC(N)=O)C(=O)N[C@@H](CCC(N)=O)C(=O)N[C@@H](CC(=O)O)C(=O)N[C@@H](Cc1ccccc1)C(=O)N[C@H](C(=O)N[C@@H](CC(N)=O)C(=O)N[C@@H](Cc1c[nH]c2ccccc12)C(=O)N[C@@H](CC(C)C)C(=O)N[C@@H](CC(C)C)C(=O)N[C@@H](C)C(=O)N[C@@H](CCC(N)=O)C(=O)N[C@@H](CCCNC(=N)N)C(N)=O)C(C)C)[C@@H](C)CC", "note": "[AT391] ([pGlu]GTFISDYSIAMDRIK(C18 diacid)QQDFVNWLLAQR-NH2)", "values": [{"measurement": "Emax", "setting": "human GIP receptor [1]", "result": 0, "unit": "%"}, {"measurement": "cAMP antagonism, % inhib", "setting": "human GIP receptor [2]", "result": 100, "unit": "%"}, {"measurement": "IC50", "setting": "human GIP receptor [2]", "result": 10, "unit": "nM"}, {"measurement": "cAMP antagonism, % inhib", "setting": "human GIP receptor [3]", "result": 95, "unit": "%"}, {"measurement": "cAMP agonism, Emax", "setting": "human GIP receptor [4]", "result": "No Agonism"}]}, {"molecule": "CC[C@H](C)[C@H](NC(=O)[C@H](CO)NC(=O)[C@H](Cc1ccc(O)cc1)NC(=O)[C@H](CC(=O)O)NC(=O)[C@H](CO)NC(=O)[C@@H](NC(=O)[C@H](Cc1ccccc1)NC(=O)[C@@H](NC(=O)CNC(=O)CN)[C@@H](C)O)[C@@H](C)CC)C(=O)N[C@@H](C)C(=O)N[C@@H](CCSC)C(=O)N[C@@H](CC(=O)O)C(=O)N[C@@H](CCCNC(=N)N)C(=O)N[C@H](C(=O)N[C@@H](CCCCNC(=O)CCCCCCCCCCCCCCC(=O)O)C(=O)N[C@@H](CCC(N)=O)C(=O)N[C@@H](CCC(N)=O)C(=O)N[C@@H](CC(=O)O)C(=O)N[C@@H](Cc1ccccc1)C(=O)N[C@H](C(=O)N[C@@H](CC(N)=O)C(=O)N[C@@H](Cc1c[nH]c2ccccc12)C(=O)N[C@@H](CC(C)C)C(=O)N[C@@H](CC(C)C)C(=O)N[C@@H](C)C(=O)N[C@@H](CCC(N)=O)C(=O)N[C@@H](CCCNC(=N)N)C(N)=O)C(C)C)[C@@H](C)CC", "note": "[AT496] (H-GGTFISDYSIAMDRIK(C16 diacid)QQDFVNWLLAQR-NH2; N-terminus assumed)", "values": [{"measurement": "Emax", "setting": "human GIP receptor [1]", "result": 0, "unit": "%"}, {"measurement": "cAMP antagonism, % inhib", "setting": "human GIP receptor [2]", "result": 100, "unit": "%"}, {"measurement": "IC50", "setting": "human GIP receptor [2]", "result": 12, "unit": "nM"}, {"measurement": "cAMP antagonism, % inhib", "setting": "human GIP receptor [3]", "result": 100, "unit": "%"}, {"measurement": "IC50", "setting": "human GIP receptor [3]", "result": 39.8, "unit": "nM"}, {"measurement": "cAMP agonism, Emax", "setting": "human GIP receptor [4]", "result": "No Agonism"}]}, {"molecule": "CC[C@H](C)[C@H](NC(=O)[C@H](CO)NC(=O)[C@H](Cc1ccc(O)cc1)NC(=O)[C@H](CC(=O)O)NC(=O)[C@H](CO)NC(=O)[C@@H](NC(=O)[C@H](Cc1ccccc1)NC(=O)[C@@H](NC(=O)CNC(=O)[C@@H](N)CO)[C@@H](C)O)[C@@H](C)CC)C(=O)N[C@@H](C)C(=O)N[C@@H](CCSC)C(=O)N[C@@H](CC(=O)O)C(=O)N[C@@H](CCCNC(=N)N)C(=O)N[C@H](C(=O)N[C@@H](CCCCNC(=O)CCCCCCCCCCCCCCC(=O)O)C(=O)N[C@@H](CCC(N)=O)C(=O)N[C@@H](CCC(N)=O)C(=O)N[C@@H](CC(=O)O)C(=O)N[C@@H](Cc1ccccc1)C(=O)N[C@H](C(=O)N[C@@H](CC(N)=O)C(=O)N[C@@H](Cc1c[nH]c2ccccc12)C(=O)N[C@@H](CC(C)C)C(=O)N[C@@H](CC(C)C)C(=O)N[C@@H](C)C(=O)N[C@@H](CCC(N)=O)C(=O)N[C@@H](CCCNC(=N)N)C(N)=O)C(C)C)[C@@H](C)CC", "note": "[AT498] (H-SGTFISDYSIAMDRIK(C16 diacid)QQDFVNWLLAQR-NH2; N-terminus assumed)", "values": [{"measurement": "cAMP agonism, % Efficacy", "setting": "human GIP receptor [1]; Table 1C, HEK-293 cells", "result": 5, "unit": "%"}, {"measurement": "cAMP antagonism, % inhib", "setting": "human GIP receptor [2]", "result": 95, "unit": "%"}, {"measurement": "IC50", "setting": "human GIP receptor [2]", "result": 21, "unit": "nM"}, {"measurement": "cAMP antagonism, % inhib", "setting": "human GIP receptor [3]", "result": 85, "unit": "%"}, {"measurement": "IC50", "setting": "human GIP receptor [3]", "result": 13.2, "unit": "nM"}, {"measurement": "Emax", "setting": "human GIP receptor [4]", "result": 6, "unit": "%"}]}, {"molecule": "CC[C@H](C)[C@H](NC(=O)[C@H](CO)NC(=O)[C@H](Cc1ccc(O)cc1)NC(=O)[C@H](CC(=O)O)NC(=O)[C@H](CO)NC(=O)[C@@H](NC(=O)[C@H](Cc1ccccc1)NC(=O)[C@@H](NC(=O)CNC(=O)[C@@H]1CCCN1)[C@@H](C)O)[C@@H](C)CC)C(=O)N[C@@H](C)C(=O)N[C@@H](CCSC)C(=O)N[C@@H](CC(=O)O)C(=O)N[C@@H](CCCNC(=N)N)C(=O)N[C@H](C(=O)N[C@@H](CCCCNC(=O)CCCCCCCCCCCCCCC(=O)O)C(=O)N[C@@H](CCC(N)=O)C(=O)N[C@@H](CCC(N)=O)C(=O)N[C@@H](CC(=O)O)C(=O)N[C@@H](Cc1ccccc1)C(=O)N[C@H](C(=O)N[C@@H](CC(N)=O)C(=O)N[C@@H](Cc1c[nH]c2ccccc12)C(=O)N[C@@H](CC(C)C)C(=O)N[C@@H](CC(C)C)C(=O)N[C@@H](C)C(=O)N[C@@H](CCC(N)=O)C(=O)N[C@@H](CCCNC(=N)N)C(N)=O)C(C)C)[C@@H](C)CC", "note": "[AT500] (H-PGTFISDYSIAMDRIK(C16 diacid)QQDFVNWLLAQR-NH2; N-terminus assumed)", "values": [{"measurement": "Emax", "setting": "human GIP receptor [1]", "result": 4, "unit": "%"}, {"measurement": "cAMP antagonism, % inhib", "setting": "human GIP receptor [2]", "result": 90, "unit": "%"}, {"measurement": "cAMP antagonism, % inhib", "setting": "human GIP receptor [3]", "result": 77, "unit": "%"}, {"measurement": "IC50", "setting": "human GIP receptor [3]", "result": 66.8, "unit": "nM"}, {"measurement": "cAMP agonism, Emax", "setting": "human GIP receptor [4]", "result": "No Agonism"}]}, {"molecule": "CC[C@H](C)[C@H](NC(=O)[C@H](CO)NC(=O)[C@H](Cc1ccc(O)cc1)NC(=O)[C@H](CC(=O)O)NC(=O)[C@H](CO)NC(=O)[C@@H](NC(=O)[C@H](Cc1ccccc1)NC(=O)[C@@H](NC(=O)CNC(=O)CN)[C@@H](C)O)[C@@H](C)CC)C(=O)N[C@@H](C)C(=O)N[C@@H](CCSC)C(=O)N[C@@H](CC(=O)O)C(=O)N[C@@H](CCCNC(=N)N)C(=O)N[C@H](C(=O)N[C@@H](CCCCNC(=O)CC[C@H](NC(=O)CCCCCCCCCCCCCCC(=O)O)C(=O)O)C(=O)N[C@@H](CCC(N)=O)C(=O)N[C@@H](CCC(N)=O)C(=O)N[C@@H](CC(=O)O)C(=O)N[C@@H](Cc1ccccc1)C(=O)N[C@H](C(=O)N[C@@H](CC(N)=O)C(=O)N[C@@H](Cc1c[nH]c2ccccc12)C(=O)N[C@@H](CC(C)C)C(=O)N[C@@H](CC(C)C)C(=O)N[C@@H](C)C(=O)N[C@@H](CCC(N)=O)C(=O)N[C@@H](CCCNC(=N)N)C(N)=O)C(C)C)[C@@H](C)CC", "note": "[AT502] (HELM PEPTIDE1{G.G.T.F.I.S.D.Y.S.I.A.M.D.R.I.K.Q.Q.D.F.V.N.W.L.L.A.Q.R.[am]}|PEPTIDE2{[O=C(O)CCCCCCCCCCCCCCC(=O)[*:2]].[gGlu]}$PEPTIDE1,PEPTIDE2,16:R3-2:R2$$$V2.0; N-terminus assumed)", "values": [{"measurement": "Emax", "setting": "human GIP receptor [1]", "result": 13, "unit": "%"}, {"measurement": "cAMP antagonism, % inhib", "setting": "human GIP receptor [2]", "result": 85, "unit": "%"}, {"measurement": "IC50", "setting": "human GIP receptor [2]", "result": 52, "unit": "nM"}, {"measurement": "cAMP antagonism, % inhib", "setting": "human GIP receptor [3]", "result": 65, "unit": "%"}, {"measurement": "Emax", "setting": "human GIP receptor [4]", "result": 5, "unit": "%"}]}]}
